From patent publication US20260250320A1, “LIPIDATED PEPTIDE INHIBITORS OF INTERLEUKIN-23 RECEPTOR” (Janssen Pharmaceutica NV, priority 2023, published 2026) come the findings set out here.

Assay [1] addresses T1, IL-23R (Homo sapiens, UniProt Q5VWK5).
T1 construct: HEK293 cells containing IL-23R, IL-12Rβ1 and a firefly luciferase reporter gene driven by a STAT-inducible promoter (Promega); host or cells: HEK293
T1 sequence (Q5VWK5 24-629): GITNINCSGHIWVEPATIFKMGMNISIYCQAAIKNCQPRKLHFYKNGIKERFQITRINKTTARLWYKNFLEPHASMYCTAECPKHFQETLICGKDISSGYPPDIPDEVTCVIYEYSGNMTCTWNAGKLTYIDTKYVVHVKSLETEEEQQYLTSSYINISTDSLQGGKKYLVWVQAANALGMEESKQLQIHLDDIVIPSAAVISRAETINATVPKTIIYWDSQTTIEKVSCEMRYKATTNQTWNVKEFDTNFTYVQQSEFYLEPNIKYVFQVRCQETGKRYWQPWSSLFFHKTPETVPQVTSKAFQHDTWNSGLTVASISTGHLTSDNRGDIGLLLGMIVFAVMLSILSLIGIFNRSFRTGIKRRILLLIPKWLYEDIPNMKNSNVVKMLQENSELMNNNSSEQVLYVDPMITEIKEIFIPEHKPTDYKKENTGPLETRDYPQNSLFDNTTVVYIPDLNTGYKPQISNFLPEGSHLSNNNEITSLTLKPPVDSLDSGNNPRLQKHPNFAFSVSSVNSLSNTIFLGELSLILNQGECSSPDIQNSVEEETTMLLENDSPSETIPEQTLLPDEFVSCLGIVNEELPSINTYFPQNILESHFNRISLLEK
In words: IL23R Reporter Assay. Format: cell-based. The note with it: HEK293 cells containing IL-23R, IL-12Rβ1 and STAT-inducible firefly luciferase reporter; 10 ng/mL IL-23 (EC90); 5 h. The method in brief: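 IC50 values were fitted with a 4-parameter Hill equation to luciferase signal, scaled between IL-23-only wells (0% inhibition) and 30 μM reference inhibitor (100%). The readout was a STAT-inducible reporter in IL-23R/IL-12Rβ1 HEK293 cells, stimulated with added 10 ng/mL IL-23 (EC90) for 5 h at 37° C and developed with BioGlo.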
(In general: Reporter assays use an easily measured gene product as a stand-in for the process of interest.)

Assay [2] has as its system IL-23-stimulated phosphorylated STAT3 in peripheral blood mononuclear cells (PBMCs). In words: PBMC pSTAT3 Assay. Type of assay: cell-based. Conditions: PBMCs from healthy donors; 30 min preincubation with peptide; IL-23 5 ng/mL for 30 min; phospho-STAT3 by MSD. The gist of the method:
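Phospho-STAT3 quantified by Meso Scale assay in lysates of PBMCs exposed to IL-23 (5 ng/mL, 30 min, 37 °C) after 30 min peptide pretreatment. Cells were cryopreserved donor PBMCs activated 4 days with anti-CD3 plus IL-1β (100 ng/mL) and starved ~4 h; IC50 reported.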

The target in assay [3] is T2, interleukin-23 receptor (IL-23R) (UniProt Q5VWK5 24-629, limits assumed).
T2 sequence (looked up): T1 sequence (Q5VWK5 24-629)
In words: cell-based or functional assay.

One may read the IC50 as the point on the concentration scale where inhibition reaches its midpoint. High values mean lower potency, low ones higher potency.

*1 amine or outer side, *2 acyl side, *3 side chain or, on linkers, in order; H or OH if unused. Where a SMILES comes first, the peptide text is derived from it. Bridges are numbered along the chain shown (N, C = ends). Primed or numbered codes have the meaning given here. Side-chain parts run from the residue outwards. [ ]: non-standard residue; d: D form. The star is where a group is joined. X29 = C[C@H](CCCCNC(=O)COCCOCCNC(=O)COCCOCCNC(=O)CC[C@H](NC(=O)CCCCCCCCCCCCCCCCC(=O)O)C(=O)O)C(=O)C[C@H](C(=O)[*:1])C(C)(C)S[*:2]; PEG12 = NCCOCCOCCOCCOCCOCCOCCOCCOCCOCCOCCOCCOCCC(=O)O; Trp(7-Me,2,3-dihydro) = Cc1cccc2c1NCC2C[C@H](N)C(=O)O; CH2CH2OCH2CH2OCH2CH2NMe3+ = C[N+](C)(C)CCOCCOCC*; PEG2′ = PEG2 spacer unit (not further defined); Trp(7-Me) = Cc1cccc2c(C[C@H](N)C(=O)O)c[nH]c12; C20 diacid = O=C(O)CCCCCCCCCCCCCCCCCCC(=O)*; C18 diacid = O=C(O)CCCCCCCCCCCCCCCCC(=O)*; X20 = CC(=O)CCCCC[C@H](N[*:1])C(=O)[*:2]; Phe(4-Me) = Cc1ccc(C[C@H](N)C(=O)O)cc1; γGlu = O=C(O)[C@H](CCC(=O)[*:2])N[*:1]; 2Nal = N[C@@H](Cc1ccc2ccccc2c1)C(=O)O; AEF = NCCOc1ccc(C[C@H](N)C(=O)O)cc1; 3Pal = N[C@@H](Cc1cccnc1)C(=O)O; succiniccarn = not defined here; Lys(Me) = CNCCCC[C@H](N)C(=O)O; NMeK = CN[C@@H](CCCCN)C(=O)O; Pen = CC(C)(S)[C@H](N)C(=O)O; PEG2(3) = not defined here; dAEF′ = not defined here; Thp = NC1(C(=O)O)CCOCC1; Sar = CNCC(=O)O

For the molecule `CC(=O)N(C)CCCC[C@@H]1NC(=O)[C@H](Cc2c[nH]c3c(C)cccc23)NC(=O)[C@H]([C@@H](C)O)NC(=O)[C@H](CC(=O)N(C)C)NC(=O)[C@@H](CC(=O)[C@H](C)CCCCNC(=O)COCCOCCNC(=O)COCCOCCNC(=O)CC[C@H](NC(=O)CCCCCCCCCCCCCCCCC(=O)O)C(=O)O)C(C)(C)SSC(C)(C)[C@@H](C(=O)N[C@@H](Cc2ccc(OCCOCCOCC[N+](C)(C)C)cc2)C(=O)N[C@@H](Cc2ccc3ccccc3c2)C(=O)NC2(C(=O)N[C@@H](CCCCN(C)C(C)=O)C(=O)N[C@@H](CC(N)=O)C(=O)N[C@@H](Cc3cccnc3)C(=O)N(C)CC(=O)N(C)C)CCOCC2)NC1=O` [compound 159, cPEG3aCO-k(PEG2PEG2gEC18OH)-Pen(3)-N(N(Me)2)-T-7MeW-K(NMeAc)-Pen(3)-APEG3F-2Nal-THP-K(NMeAc)-N-3Pya-Sar-CON(Me)2] (D(NMe2)T[Trp(7-Me)][Lys(Me)](Ac)[Pen]Y(CH2CH2OCH2CH2OCH2CH2NMe3+)[2Nal][Thp][Lys(Me)](Ac)N[3Pal][Sar]-NMe2; linker N-5 via X29), the IC50 is less than 50 nM in assay [1] and less than 0.5 nM in assay [2]. The matching figures for `CC(=O)NCCCC[C@@H]1NC(=O)[C@H](Cc2c[nH]c3c(C)cccc23)NC(=O)[C@H]([C@@H](C)O)NC(=O)[C@H](CC(N)=O)NC(=O)[C@@H](NC(C)=O)C(C)(C)SSC(C)(C)[C@@H](C(=O)N[C@@H](Cc2ccc(OCCN)cc2)C(=O)N[C@@H](Cc2ccc3ccccc3c2)C(=O)NC2(C(=O)N[C@@H](CCC(=O)O)C(=O)N[C@@H](CC(N)=O)C(=O)N[C@@H](Cc3cccnc3)C(=O)N(C)CC(=O)N[C@@H](CCCCNC(=O)COCCOCCNC(=O)COCCOCCNC(=O)CC[C@H](NC(=O)CCCCCCCCCCCCCCCCC(=O)O)C(=O)O)C(N)=O)CCOCC2)NC1=O` [compound 160, cPEG3aCO-r-Pen(3)-N-T-7MeW-K(Ac)-Pen(3)-AEF-2Nal-THP-E-N-3Pya-Sar-K(PEG2PEG2gEC18OH)-CONH2]: 50 to 500 nM and less than 0.5 nM. As to `CC(=O)CCCCC[C@@H]1NC(=O)[C@H](Cc2c[nH]c3c(C)cccc23)NC(=O)[C@H]([C@@H](C)O)NC(=O)[C@H](CC(N)=O)NC(=O)[C@@H](NC(C)=O)C(C)(C)SSC(C)(C)[C@@H](C(=O)N[C@@H](Cc2ccc(OCCN)cc2)C(=O)N[C@@H](CCC(=O)O)C(=O)N[C@@H](CC(N)=O)C(=O)N[C@@H](Cc2cccnc2)C(=O)N(C)CC(=O)N[C@@H](CCCCNC(=O)CCOCCOCCOCCOCCOCCOCCOCCOCCOCCOCCOCCOCCNC(=O)CC[C@H](NC(=O)CCCCCCCCCCCCCCCCC(=O)O)C(=O)O)C(N)=O)NC1=O` [compound 161, MeCO-Pen(3)-N-T-7MeW-K(Ac)-Pen(3)-AEF-2Nal-THP-E-N-3Pya-Sar-K(PEG12gEC18OH)-CONH2] (Ac-[Pen]NT[Trp(7-Me)][X20][Pen][AEF]EN[3Pal][Sar]K([PEG12-γGlu-C18 diacid])-NH2; disulfide 1-6), the results for the IC50 in assay [1] and in assay [2] were less than 50 nM and less than 0.5 nM, respectively. Consider `CC(=O)NCCCC[C@@H]1NC(=O)[C@H](CC2CNc3c(C)cccc32)NC(=O)[C@H]([C@@H](C)O)NC(=O)[C@H](CC(N)=O)NC(=O)[C@@H](NC(C)=O)C(C)(C)SSC(C)(C)[C@@H](C(=O)N[C@@H](Cc2ccc(C)cc2)C(=O)N[C@@H](Cc2ccc3ccccc3c2)C(=O)NC2(C(=O)N[C@@H](CCCCNC(=O)CCOCCOCCOCCOCCOCCOCCOCCOCCOCCOCCOCCOCCNC(=O)CC[C@H](NC(=O)CCCCCCCCCCCCCCCCCCC(=O)O)C(=O)O)C(=O)N[C@@H](CC(N)=O)C(=O)N[C@@H](Cc3cccnc3)C(=O)N(C)CC(N)=O)CCOCC2)NC1=O` (stereo partly drawn) [compound 162, MeCO-Pen(3)-N-T-7MeW-K(Ac)-Pen(3)-AEF-2Nal-THP-K(PEG12gEC20OH)-N-3Pya-Sar-CONH2] (Ac-[Pen]NT[Trp(7-Me,2,3-dihydro)]K(Ac)[Pen][Phe(4-Me)][2Nal][Thp]K([PEG12-γGlu-C20 diacid])N[3Pal][Sar]-NH2; disulfide 1-6), for which the figures for the IC50 in assay [1] and in assay [2] were 50 to 500 nM and less than 0.5 nM, respectively.

B1: SEQ ID NO: 20 (peptide)
peptide: succiniccarn-[dR][Pen]NT[Trp(7-Me)]K([PEG2′-PEG2′-γGlu-C18OH])[Pen][AEF][2Nal][Thp]EN[3Pal][Sar]-NH2
modifications: disulfide 2-7 (inferred); reading uncertain; also: printed as succiniccarn-r-Pen(3)-N-T-7MeW-K(PEG2PEG2gEC18OH)-Pen(3)-AEF-2Nal-THP-E-N-3Pya-Sar-CONH2
As to B1, the “PBMC pSTAT3 IC50” value in assay [3] is less than 0.5 nM.

B2: SEQ ID NO: 18 (peptide)
peptide: succiniccarn-[dR][Pen]K([PEG2(3)-PEG2(3)-γGlu-C18OH])T[Trp(7-Me)]K(Ac)[Pen][AEF][2Nal][Thp]EN[3Pal][Sar]-NH2
modifications: disulfide 2-7 (inferred); reading uncertain; also: printed as succiniccarn-r-Pen(3)-K(PEG2PEG2gEC18OH)-T-7MeW-K(Ac)-Pen(3)-AEF-2Nal-THP-E-N-3Pya-Sar-CONH2
For the molecule B2, the “PBMC pSTAT3 IC50” value in assay [3] is less than 0.5 nM.

B3: SEQ ID NO: 2 (peptide)
peptide: XNTXXXXXXXNXXK
modifications: not fully specified; MeCO-Pen(3)-N-T-7MeW-K(Ac)-Pen(3)-AEF-2Nal-THP-K(Ac)-N-3Pya-Sar-K(PEG2NMePEG2NMegENMeC18Tetrazole)-CONH2
B3: in assay [3], the “PBMC pSTAT3 IC50” value was less than 0.5 nM.

B4: SEQ ID NO: 23 (peptide)
peptide: Ac-[dR][Pen]NT[Trp(7-Me)]K(Ac)[Pen][dAEF′][2Nal][Thp]EN[3Pal][Sar]K([PEG2′-PEG2′-γGlu-C18OH])-NH2
modifications: disulfide 2-7 (inferred); reading uncertain; also: printed as MeCO-r-Pen(3)-N-T-7MeW-K(Ac)-Pen(3)-AEF(d)-2Nal-THP-E-N-3Pya-Sar-K(PEG2PEG2gEC18OH)-CONH2
As to B4, the “PBMC pSTAT3 IC50” value in assay [3] is less than 0.5 nM.

B5: SEQ ID NO: 17 (peptide)
peptide: Ac-K[Pen]NT[Trp(7-Me)]K(Ac)[Pen]X[2Nal][Thp]EN[3Pal][Sar]-NH2
modifications: disulfide 2-7 (inferred); not fully specified (residues 1, 8); printed as MeCO-k(PEG2PEG2gEC18OH)-Pen(3)-N-T-7MeW-K(Ac)-Pen(3)-AEF(d)-2Nal-THP-E-N-3Pya-Sar-CONH2
B5: the “PBMC pSTAT3 IC50” value in assay [3] is less than 0.5 nM.

B6: SEQ ID NO: 19 (peptide)
peptide: Ac-[dR][Pen]NT[Trp(7-Me)]K[Pen][AEF][2Nal][Thp]EN[3Pal]X-NH2
modifications: disulfide 2-7 (inferred); not fully specified (residues 6, 14); printed as MeCO-r-Pen(3)-N-T-7MeW-K(PEG2PEG2gEC18OH)-Pen(3)-AEF-2Nal-THP-E-N-3Pya-NMeK(d)-CONH2
On to B6, for which the “PBMC pSTAT3 IC50” value in assay [3] was less than 0.5 nM.

B7: SEQ ID NO: 16 (peptide)
peptide: Ac-[dR][Pen]NT[Trp(7-Me)]K(Ac)[Pen]X[2Nal][Thp]EN[3Pal][NMeK]-NH2
modifications: disulfide 2-7 (inferred); not fully specified (residues 8, 14); printed as MeCO-r-Pen(3)-N-T-7MeW-K(Ac)-Pen(3)-AEF(d)-2Nal-THP-E-N-3Pya-NMeK(PEG2PEG2gEC18OH)-CONH2
Consider B7, for which the “PBMC pSTAT3 IC50” value in assay [3] was less than 0.5 nM.
